Test results from the kinase profiling compilation of Christmann-Franck et al. (2016).

Experiments:
Assay in all cases: KINOMEscan competition binding
Settings in all cases: compound 10.0 µM
BMPR2 (human) = BMPR2 (human) (UniProt Q13873)
EPHB3 (human) = EPHB3 (human) (UniProt P54753)
CDK13 (human) = CDK13 (human) (UniProt Q14004)
CRK2 (P.falciparum) = CRK2 (P.falciparum) (UniProt P61075)
HIPK2 (human) = HIPK2 (human) (UniProt Q9H2X6)
ERBB3 (human) = ERBB3 (human) (UniProt P21860)
STK32A (human) = STK32A (human) (UniProt Q8WU08)
MAP4K2 (human) = MAP4K2 (human) (UniProt Q12851)
IRAK3 (human) = IRAK3 (human) (UniProt Q9Y616)
CSF1R (human) = CSF1R (human) (UniProt P07333)
PIP5K1A (human) = PIP5K1A (human) (UniProt Q99755)
NUAK2 (human) = NUAK2 (human) (UniProt Q9H093)
SNRK (human) = SNRK (human) (UniProt Q9NRH2)
TAOK2 (human) = TAOK2 (human) (UniProt Q9UL54)
CHEK2 (human) = CHEK2 (human) (UniProt O96017)
RAF1 (human) = RAF1 (human) (UniProt P04049)
MAP3K11 (human) = MAP3K11 (human) (UniProt Q16584)
NEK3 (human) = NEK3 (human) (UniProt P51956)
PRPF4B (human) = PRPF4B (human) (UniProt Q13523)
[1] = test system: MET (human), P08581 [Y1235D]
GRK7 (human) = GRK7 (human) (UniProt Q8WTQ7)
PKN1 (human) = PKN1 (human) (UniProt Q16512)
INSR (human) = INSR (human) (UniProt P06213)
NEK4 (human) = NEK4 (human) (UniProt P51957)
MAST1 (human) = MAST1 (human) (UniProt Q9Y2H9)
PIK3CG (human) = PIK3CG (human) (UniProt P48736)
MET (human) = MET (human) (UniProt P08581)
LTK (human) = LTK (human) (UniProt P29376)
MARK2 (human) = MARK2 (human) (UniProt Q7KZI7)
MAPK6 (human) = MAPK6 (human) (UniProt Q16659)
LYN (human) = LYN (human) (UniProt P07948)
PIM1 (human) = PIM1 (human) (UniProt P11309)
DCLK2 (human) = DCLK2 (human) (UniProt Q8N568)
[2] = test system: FLT3 (human), P36888 [D835H]
MAPK3 (human) = MAPK3 (human) (UniProt P27361)
RIOK1 (human) = RIOK1 (human) (UniProt Q9BRS2)
PRKCI (human) = PRKCI (human) (UniProt P41743)
EPHB6 (human) = EPHB6 (human) (UniProt O15197)
CSNK1E (human) = CSNK1E (human) (UniProt P49674)
CSNK1G2 (human) = CSNK1G2 (human) (UniProt P78368)
Chain of CSNK1G2 (human) (P78368 whole entry, looked up): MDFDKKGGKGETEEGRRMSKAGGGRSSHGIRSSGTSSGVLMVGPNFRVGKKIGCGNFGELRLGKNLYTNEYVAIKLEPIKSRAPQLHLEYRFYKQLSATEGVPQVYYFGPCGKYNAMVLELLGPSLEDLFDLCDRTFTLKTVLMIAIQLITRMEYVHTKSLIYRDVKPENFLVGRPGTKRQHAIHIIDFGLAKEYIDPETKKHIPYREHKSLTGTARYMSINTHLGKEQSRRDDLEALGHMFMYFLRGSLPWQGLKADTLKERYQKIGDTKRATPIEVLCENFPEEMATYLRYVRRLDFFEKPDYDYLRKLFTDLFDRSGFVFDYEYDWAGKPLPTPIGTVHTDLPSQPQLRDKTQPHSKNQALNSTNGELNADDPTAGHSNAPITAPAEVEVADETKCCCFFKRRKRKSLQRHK

Chain of BMPR2 (human) (Q13873 whole entry, looked up): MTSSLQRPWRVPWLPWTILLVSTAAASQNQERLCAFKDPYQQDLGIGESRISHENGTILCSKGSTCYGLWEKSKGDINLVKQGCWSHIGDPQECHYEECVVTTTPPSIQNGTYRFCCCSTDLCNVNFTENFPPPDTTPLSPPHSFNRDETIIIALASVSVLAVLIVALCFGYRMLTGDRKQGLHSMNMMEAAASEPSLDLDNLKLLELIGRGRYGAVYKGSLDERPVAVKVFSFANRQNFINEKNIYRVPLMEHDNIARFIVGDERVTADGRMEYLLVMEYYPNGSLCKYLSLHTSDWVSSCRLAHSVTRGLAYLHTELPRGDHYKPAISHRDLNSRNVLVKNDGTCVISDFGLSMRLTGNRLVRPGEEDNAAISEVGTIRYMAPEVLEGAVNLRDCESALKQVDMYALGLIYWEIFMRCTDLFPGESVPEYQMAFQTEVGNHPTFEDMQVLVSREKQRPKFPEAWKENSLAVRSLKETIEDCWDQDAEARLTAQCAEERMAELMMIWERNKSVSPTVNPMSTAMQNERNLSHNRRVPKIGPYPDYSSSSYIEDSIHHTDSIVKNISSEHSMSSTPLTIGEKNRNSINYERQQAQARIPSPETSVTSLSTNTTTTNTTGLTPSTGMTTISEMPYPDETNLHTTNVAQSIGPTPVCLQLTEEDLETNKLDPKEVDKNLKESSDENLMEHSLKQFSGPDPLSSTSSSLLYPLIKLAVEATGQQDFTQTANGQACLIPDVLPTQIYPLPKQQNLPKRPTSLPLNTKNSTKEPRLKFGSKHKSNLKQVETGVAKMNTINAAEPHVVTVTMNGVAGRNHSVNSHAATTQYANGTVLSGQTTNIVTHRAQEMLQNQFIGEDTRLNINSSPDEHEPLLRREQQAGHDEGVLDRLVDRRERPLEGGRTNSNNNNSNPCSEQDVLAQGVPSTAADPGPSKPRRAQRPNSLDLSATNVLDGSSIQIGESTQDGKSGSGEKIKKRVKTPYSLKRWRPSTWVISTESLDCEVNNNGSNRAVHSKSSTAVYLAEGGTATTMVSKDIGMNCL
Chain of MAP3K11 (human) (Q16584 whole entry, looked up): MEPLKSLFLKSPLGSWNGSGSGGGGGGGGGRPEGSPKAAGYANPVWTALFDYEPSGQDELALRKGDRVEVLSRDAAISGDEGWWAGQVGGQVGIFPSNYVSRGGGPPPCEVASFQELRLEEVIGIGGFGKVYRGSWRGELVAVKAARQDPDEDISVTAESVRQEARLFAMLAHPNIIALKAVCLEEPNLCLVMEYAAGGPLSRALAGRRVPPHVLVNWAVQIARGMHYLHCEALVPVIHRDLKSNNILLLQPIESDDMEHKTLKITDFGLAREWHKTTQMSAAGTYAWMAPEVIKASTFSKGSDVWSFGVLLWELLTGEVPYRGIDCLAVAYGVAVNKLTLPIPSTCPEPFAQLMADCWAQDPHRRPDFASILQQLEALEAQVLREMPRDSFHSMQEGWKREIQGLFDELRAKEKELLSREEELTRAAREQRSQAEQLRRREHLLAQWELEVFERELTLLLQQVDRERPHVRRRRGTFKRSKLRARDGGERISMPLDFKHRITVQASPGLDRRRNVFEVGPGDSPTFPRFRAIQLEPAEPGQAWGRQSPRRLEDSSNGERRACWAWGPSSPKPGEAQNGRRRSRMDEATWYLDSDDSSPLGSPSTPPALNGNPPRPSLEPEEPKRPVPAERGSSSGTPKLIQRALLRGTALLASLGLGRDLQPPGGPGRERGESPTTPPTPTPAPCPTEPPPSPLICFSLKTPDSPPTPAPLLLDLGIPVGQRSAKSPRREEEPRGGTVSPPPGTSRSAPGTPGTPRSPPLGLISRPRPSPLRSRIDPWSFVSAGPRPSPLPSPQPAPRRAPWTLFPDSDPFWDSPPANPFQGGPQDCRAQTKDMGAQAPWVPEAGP
Chain of STK32A (human) (Q8WU08 whole entry, looked up): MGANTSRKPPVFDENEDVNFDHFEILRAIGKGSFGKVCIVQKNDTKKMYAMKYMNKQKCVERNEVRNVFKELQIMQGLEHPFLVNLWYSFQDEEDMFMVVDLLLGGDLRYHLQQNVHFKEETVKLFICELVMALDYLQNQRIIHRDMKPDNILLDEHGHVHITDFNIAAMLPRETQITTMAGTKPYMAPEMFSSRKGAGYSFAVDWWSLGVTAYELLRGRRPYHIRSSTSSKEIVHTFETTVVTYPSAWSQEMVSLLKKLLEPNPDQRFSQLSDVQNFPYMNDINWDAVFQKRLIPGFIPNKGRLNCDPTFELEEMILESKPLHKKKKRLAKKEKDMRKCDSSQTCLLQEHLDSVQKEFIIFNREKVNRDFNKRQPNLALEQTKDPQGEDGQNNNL
Chain of INSR (human) (P06213 whole entry, looked up): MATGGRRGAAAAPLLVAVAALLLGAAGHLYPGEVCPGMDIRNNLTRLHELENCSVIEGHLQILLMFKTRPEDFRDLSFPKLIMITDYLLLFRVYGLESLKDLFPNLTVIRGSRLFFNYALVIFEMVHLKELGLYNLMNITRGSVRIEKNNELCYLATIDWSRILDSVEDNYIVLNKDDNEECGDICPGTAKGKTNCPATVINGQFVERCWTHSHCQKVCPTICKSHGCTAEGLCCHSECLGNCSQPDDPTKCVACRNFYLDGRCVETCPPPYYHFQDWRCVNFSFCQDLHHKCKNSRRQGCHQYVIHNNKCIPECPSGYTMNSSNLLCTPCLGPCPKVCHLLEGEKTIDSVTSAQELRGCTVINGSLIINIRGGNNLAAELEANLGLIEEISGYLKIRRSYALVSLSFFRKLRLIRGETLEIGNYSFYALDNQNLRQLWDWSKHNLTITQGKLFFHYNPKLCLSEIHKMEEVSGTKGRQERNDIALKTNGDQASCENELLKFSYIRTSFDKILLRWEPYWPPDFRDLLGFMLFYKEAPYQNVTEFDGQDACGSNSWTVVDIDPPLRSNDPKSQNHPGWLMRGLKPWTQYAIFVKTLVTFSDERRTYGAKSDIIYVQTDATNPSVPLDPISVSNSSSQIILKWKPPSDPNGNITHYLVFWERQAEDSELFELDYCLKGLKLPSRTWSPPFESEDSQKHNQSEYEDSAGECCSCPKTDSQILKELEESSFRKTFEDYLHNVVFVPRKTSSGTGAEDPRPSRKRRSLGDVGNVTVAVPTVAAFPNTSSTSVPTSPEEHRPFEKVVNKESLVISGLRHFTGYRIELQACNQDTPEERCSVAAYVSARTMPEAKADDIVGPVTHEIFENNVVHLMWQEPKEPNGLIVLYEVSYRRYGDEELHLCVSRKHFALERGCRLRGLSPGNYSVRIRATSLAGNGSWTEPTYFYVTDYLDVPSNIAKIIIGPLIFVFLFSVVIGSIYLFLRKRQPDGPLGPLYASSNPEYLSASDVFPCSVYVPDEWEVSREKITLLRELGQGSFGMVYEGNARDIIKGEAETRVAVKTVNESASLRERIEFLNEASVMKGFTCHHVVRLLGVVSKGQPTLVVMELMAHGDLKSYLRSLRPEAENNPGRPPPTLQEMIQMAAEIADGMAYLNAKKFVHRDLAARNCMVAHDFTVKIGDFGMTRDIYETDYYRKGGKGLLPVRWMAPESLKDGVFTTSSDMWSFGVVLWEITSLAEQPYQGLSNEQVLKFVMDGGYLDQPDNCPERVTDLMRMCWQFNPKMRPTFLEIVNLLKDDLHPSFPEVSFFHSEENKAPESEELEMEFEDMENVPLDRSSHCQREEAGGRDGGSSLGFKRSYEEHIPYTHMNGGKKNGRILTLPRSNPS
Chain of PRPF4B (human) (Q13523 whole entry, looked up): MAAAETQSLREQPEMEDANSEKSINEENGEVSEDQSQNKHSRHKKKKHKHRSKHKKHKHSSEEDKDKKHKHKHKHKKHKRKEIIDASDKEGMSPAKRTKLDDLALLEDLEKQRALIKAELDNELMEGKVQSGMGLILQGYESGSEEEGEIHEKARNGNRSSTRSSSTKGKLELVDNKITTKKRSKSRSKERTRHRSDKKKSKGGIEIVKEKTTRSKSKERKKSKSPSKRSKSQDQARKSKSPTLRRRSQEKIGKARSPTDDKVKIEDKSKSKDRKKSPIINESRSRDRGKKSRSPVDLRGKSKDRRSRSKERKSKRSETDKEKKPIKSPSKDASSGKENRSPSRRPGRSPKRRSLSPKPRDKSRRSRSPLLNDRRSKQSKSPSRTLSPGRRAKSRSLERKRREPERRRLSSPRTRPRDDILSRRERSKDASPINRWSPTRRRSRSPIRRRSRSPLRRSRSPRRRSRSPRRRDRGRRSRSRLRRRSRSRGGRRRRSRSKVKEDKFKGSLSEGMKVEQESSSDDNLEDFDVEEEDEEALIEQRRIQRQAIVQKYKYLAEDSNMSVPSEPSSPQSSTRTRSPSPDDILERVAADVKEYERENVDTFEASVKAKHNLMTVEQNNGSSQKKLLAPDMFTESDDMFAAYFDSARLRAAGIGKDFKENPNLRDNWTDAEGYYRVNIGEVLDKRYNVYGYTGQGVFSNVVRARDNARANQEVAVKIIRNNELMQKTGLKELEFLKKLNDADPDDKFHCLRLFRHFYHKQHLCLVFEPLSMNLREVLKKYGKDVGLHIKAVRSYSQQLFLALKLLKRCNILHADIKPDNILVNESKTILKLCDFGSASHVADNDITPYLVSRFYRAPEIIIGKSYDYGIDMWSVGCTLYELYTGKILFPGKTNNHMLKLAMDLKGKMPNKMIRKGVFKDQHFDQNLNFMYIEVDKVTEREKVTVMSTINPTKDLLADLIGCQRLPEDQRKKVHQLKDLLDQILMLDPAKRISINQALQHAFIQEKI

Row | SMILES | kinase still bound, per cent of control (BMPR2 (human)) [%] | kinase still bound, per cent of control (EPHB3 (human)) [%] | kinase still bound, per cent of control (CDK13 (human)) [%] | kinase still bound, per cent of control (CRK2 (P.falciparum)) [%] | kinase still bound, per cent of control (HIPK2 (human)) [%] | kinase still bound, per cent of control (ERBB3 (human)) [%] | kinase still bound, per cent of control (STK32A (human)) [%] | kinase still bound, per cent of control (MAP4K2 (human)) [%] | kinase still bound, per cent of control (IRAK3 (human)) [%] | kinase still bound, per cent of control (CSF1R (human)) [%] | kinase still bound, per cent of control (PIP5K1A (human)) [%] | kinase still bound, per cent of control (NUAK2 (human)) [%] | kinase still bound, per cent of control (SNRK (human)) [%] | kinase still bound, per cent of control (TAOK2 (human)) [%] | kinase still bound, per cent of control (CHEK2 (human)) [%] | kinase still bound, per cent of control (RAF1 (human)) [%] | kinase still bound, per cent of control (MAP3K11 (human)) [%] | kinase still bound, per cent of control (NEK3 (human)) [%] | kinase still bound, per cent of control (PRPF4B (human)) [%] | kinase still bound, per cent of control [1] [%] | further results
1 | COc1ccc(N(C(=O)Oc2c(C)cccc2C)c2ccnc(Nc3ccc(N4CCN(C)CC4)cc3)n2)c(OC)c1 | 0.2 | 0 | 100 | 100 | 100 | 0 | 8.2 | 1.6 | 19 | 0.1 | 0.45 | 9.8 | 100 | 2.4 | 78 | 95 | 8.8 | 100 | 55 | 1.6 | kinase still bound, per cent of control (GRK7 (human)): 72%; kinase still bound, per cent of control (PKN1 (human)): 15%; kinase still bound, per cent of control (INSR (human)): 100%; kinase still bound, per cent of control (NEK4 (human)): 74%; kinase still bound, per cent of control (MAST1 (human)): 100%; kinase still bound, per cent of control (PIK3CG (human)): 100%; kinase still bound, per cent of control (MET (human)): 3.9%; kinase still bound, per cent of control (LTK (human)): 1.2%; kinase still bound, per cent of control (MARK2 (human)): 87%; kinase still bound, per cent of control (MAPK6 (human)): 100%; kinase still bound, per cent of control (LYN (human)): 0%; kinase still bound, per cent of control (PIM1 (human)): 100%; kinase still bound, per cent of control (DCLK2 (human)): 44%; kinase still bound, per cent of control [2]: 3%; kinase still bound, per cent of control (MAPK3 (human)): 100%; kinase still bound, per cent of control (RIOK1 (human)): 5.8%; kinase still bound, per cent of control (PRKCI (human)): 62%; kinase still bound, per cent of control (EPHB6 (human)): 1.2%; kinase still bound, per cent of control (CSNK1E (human)): 23%; kinase still bound, per cent of control (CSNK1G2 (human)): 33%
2 | CN(C)C/C=C/C(=O)Nc1ccc(C(=O)Nc2cccc(Nc3nccc(-c4cccnc4)n3)c2)cc1 | 100 | 75 | 86 | 100 | 2.6 | 57 | 95 | 9 | 6.8 | 100 | 34 | 30 | 66 | 70 | 86 | 100 | 100 | 17 | 100 | 100 | kinase still bound, per cent of control (GRK7 (human)): 98%; kinase still bound, per cent of control (PKN1 (human)): 95%; kinase still bound, per cent of control (INSR (human)): 74%; kinase still bound, per cent of control (NEK4 (human)): 100%; kinase still bound, per cent of control (MAST1 (human)): 100%; kinase still bound, per cent of control (PIK3CG (human)): 13%; kinase still bound, per cent of control (MET (human)): 100%; kinase still bound, per cent of control (LTK (human)): 100%; kinase still bound, per cent of control (MARK2 (human)): 73%; kinase still bound, per cent of control (MAPK6 (human)): 7.4%; kinase still bound, per cent of control (LYN (human)): 100%; kinase still bound, per cent of control (PIM1 (human)): 95%; kinase still bound, per cent of control (DCLK2 (human)): 100%; kinase still bound, per cent of control [2]: 28%; kinase still bound, per cent of control (MAPK3 (human)): 100%; kinase still bound, per cent of control (RIOK1 (human)): 10%; kinase still bound, per cent of control (PRKCI (human)): 100%; kinase still bound, per cent of control (EPHB6 (human)): 3.9%; kinase still bound, per cent of control (CSNK1E (human)): 56%; kinase still bound, per cent of control (CSNK1G2 (human)): 100%
